Assay results as given in patent US20090203773A1, “Compounds for the Treatment of Non-Autoimmune Type 2 Diabetes Mellitus and/or Syndrome X” (priority 2005, published 2009).

Columns and labels:
C3H10T1/2 cells [1] = experiment: Glucose uptake of adipocytes (radioactive 2-deoxyglucose, basal, without insulin); assay type: cell-based; conditions: 48-h treatment; for Basal glucose uptake (% of control ± SEM): absence of insulin, DMSO control = 100%; for Basal glucose uptake, result in words: different concentrations
Protocol: C3H10T1/2 cells (ATCC CCL-226) were grown for 5 days to confluence in DMEM supplemented with 10% FBS medium and induced with a mixture of insulin, dexamethasone and 3-isobutyl-1-methylxanthine to differentiate into adipocytes. Nine days after the beginning of induction, cells were treated for 48-h with the compound of the formula I-13 at different concentrations as shown in Table 1. Glucose uptake was determined using radioactive 2-deoxyglucose (10 μM 2-DG in HBS+0.5 μCi/ml of 3[H]-2-DG), measuring glucose uptake in the absence of insulin. Basal glucose uptake was increased by 48-h treatment with the compound of the formula I-13 in a dose-dependent manner (Table 1). Growing, induction and treatment of C3H10T1/2 cells were exactly as described in Example 1, with the exception that the compound of the formula I-15 at different concentrations was used instead of the compound of the formula I-13. […] Control: C3H10T1/2 cells treated for 48 h with DMSO at the same concentration as compound-treated cells and set at 100%

C57BLKS/J db/db mice = experiment: Glucose tolerance / blood glucose in a 14-day db/db mouse study (OGTT); assay type: in vivo
Protocol: The efficacy of the compound of the formula I-13 on glucose tolerance was tested in a 14-day study in C57BLKS/J db/db mice (n=10/group), a model of late type 2 diabetes mellitus with severe hyperglycemia.
Male db/db mice were obtained from Jackson Laboratory (Bar Harbor, Me., USA). Adult mice aged 8 weeks were used in the experiment. Mice were housed individually in plastic cages with bedding and allowed free access to standard rodent food and tap water. The animal rooms were controlled for temperature (24° C.), humidity (55%), and light (12-h light-dark cycle). The animals were randomized in two groups and the compound of the formula I-13 was administered orally to one of the groups for 14 days at a dose of 200 mg/kg BW/day. After 14 days of treatment the concentration of glucose was determined in blood from fed animals, i.e., animals which were not restricted from food. After a period of 10 days of treatment an oral glucose tolerance test (OGTT) was performed. For the OGTT mice were fasted overnight and then a 1-g glucose/kg BW solution was orally administered. Blood samples were taken before and 15, 30, 45, 60, 90, 120, 150, 180 min after the glucose challenge for determination of blood glucose levels and then the area under the curve (AUC) was determined. Blood glucose was measured by a glucose analyzer (Glucotrend Premium, Roche Diagnostics, Rotkreuz, Switzerland). The glucose and the free fatty acid (FFA) levels of fed animals (see above) were lowered after 14 days of treatment with the compound of the formula I-13. After 10 days of treatment with the compound of the formula I-13 the glucose levels of fasted animals, i.e., animals with an overnight fasting (see above) were decreased as compared to the untreated control group.

C3H10T1/2 cells [2] = experiment: Differentiation of adipocytes (oil Red O staining); assay type: cell-based; conditions: for Adipocyte differentiation, oil Red O, Mean OD ± SEM: 10-day treatment, absorbance at 540 nm; for Differentiation of the cells into adipocytes, result in words: co-treatment with insulin, compared with insulin alone
Protocol: C3H10T1/2 cells were grown to confluence as described in Example 1, then treated for 10 days with insulin alone (negative control) or with a mixture of insulin and the compound of the formula I-13 at different concentrations (see Table 2), with re-feeding with fresh medium and compounds every 48-h. After 10-days of treatment, the cells were stained with oil Red O as follows: cells were washed 2× in PBS and fixed in 10% formalin at room temperature for 1 h. After removal of formalin, 200 μl of oil Red O staining solution (3:2 mixture of 0.5% w/v oil Red O stock solution and water) was applied to each well. The cells were incubated for 20 min at room temperature, washed twice in 2×PBS and incubated for 10 min with 300 μl of isopropanol/well for oil Red O extraction. Quantification of oil Red O was determined by measuring absorbance at 540 nm (mean OD). […] C3H10T1/2 cells were grown and treated as described in Example 4 with the exception that the compound of the formula I-14 was used instead of the compound of the formula I-13. The measurement of adipocyte differentiation using the oil Red O assay was performed as described in Example 4. […] C3H10T1/2 cells were grown and treated as described in Example 4 with the exception that the compound of the formula I-15 was used instead of the compound of the formula I-13. The measurement of adipocyte differentiation using the oil Red O assay was performed as described in Example 4.

[3] = 200 mg/kg BW/day orally, after 14 days, fed animals
[4] = Insulin 1 × 10^−7 M + compound 1 × 10^−5 M

## CC1(COc2ccc(CC3SC(=O)NC3=O)cc2)CCCCC1 (stereo not shown) [Ciglitazone, reference compound]
C3H10T1/2 cells [1]; 5 × 10^−5 M
  Basal glucose uptake (% of control ± SEM): 496.178 ± 61.86 % of control

## COc1ccc(C(=O)/C=C/c2c(CCN(C)C(C)=O)cc3c(c2OC)OCO3)cc1 [I-13]
C57BLKS/J db/db mice; 200 mg/kg BW/day orally, OGTT (1 g glucose/kg BW) on day 10, 0-180 min
  Glucose AUC: 54295
C57BLKS/J db/db mice; 200 mg/kg BW/day orally, after 10 days, overnight fasting
  Blood Glucose Fasted: 135 mg/dL
C57BLKS/J db/db mice; [3]
  Blood Glucose Fed: 771 mg/dL
  FFA: 12.38 mg/dL
C57BLKS/J db/db mice; 200 mg/kg BW/day, OGTT 1 g glucose/kg body weight on day 10
  Glucose AUC of an OGTT, result in words: significantly reduced
C57BLKS/J db/db mice; 200 mg/kg BW/day, after 10 days, compared to untreated control group
  Glucose levels of fasted animals, result in words: decreased
C57BLKS/J db/db mice; 200 mg/kg BW/day, after 14 days
  Glucose and free fatty acid (FFA) levels of fed animals, result in words: lowered
C57BLKS/J db/db mice; 200 mg/kg BW/day, day 10, compared with control group
  Blood glucose levels during the OGTT, result in words: lower at all time points
C3H10T1/2 cells [1]; 1 × 10^−5 M
  Basal glucose uptake (% of control ± SEM): 94.58 ± 0.95 % of control
C3H10T1/2 cells [1]; 1 × 10^−6 M
  Basal glucose uptake (% of control ± SEM): 97.6 ± 22.9 % of control
C3H10T1/2 cells [1]; 2.4 × 10^−5 M
  Basal glucose uptake (% of control ± SEM): 128.6 ± 0.89 % of control
C3H10T1/2 cells [1]; 5 × 10^−4 M
  Basal glucose uptake (% of control ± SEM): 194.058 ± 0.05 % of control
C3H10T1/2 cells [1]
  Basal glucose uptake, result in words: increased
C3H10T1/2 cells [2]; [4]
  Adipocyte differentiation, oil Red O, Mean OD ± SEM: 0.69 ± 0.019
C3H10T1/2 cells [2]
  Differentiation of the cells into adipocytes, result in words: higher differentiation

## COc1ccc(C(=O)C=Cc2cccc(OC(=O)C=Cc3ccccc3)c2)cc1 [I-14]
C3H10T1/2 cells [2]; [4]
  Adipocyte differentiation, oil Red O, Mean OD ± SEM: 0.45 ± 0.037
C3H10T1/2 cells [2]
  Differentiation of the cells into adipocytes, result in words: higher differentiation

## COc1ccc(/C=C/C(=O)c2ccc(OC(=O)c3ccccc3)cc2)cc1OC [I-15]
C3H10T1/2 cells [1]; 1 × 10^−5 M
  Basal glucose uptake (% of control ± SEM): 133.28 ± 23.4 % of control
C3H10T1/2 cells [1]; 1 × 10^−6 M
  Basal glucose uptake (% of control ± SEM): 105.37 ± 2.21 % of control
C3H10T1/2 cells [1]; 2 × 10^−4 M
  Basal glucose uptake (% of control ± SEM): 142.84 ± 18.05 % of control
C3H10T1/2 cells [1]; 5 × 10^−5 M
  Basal glucose uptake (% of control ± SEM): 116.17 ± 15.96 % of control
C3H10T1/2 cells [1]
  Basal glucose uptake, result in words: increase
C3H10T1/2 cells [2]; [4]
  Adipocyte differentiation, oil Red O, Mean OD ± SEM: 0.53 ± 0.025
C3H10T1/2 cells [2]; Insulin 1 × 10^−7 M + compound 2 × 10^−4 M
  Adipocyte differentiation, oil Red O, Mean OD ± SEM: 0.34 ± 0.087
C3H10T1/2 cells [2]; Insulin 1 × 10^−7 M + compound 5 × 10^−5 M
  Adipocyte differentiation, oil Red O, Mean OD ± SEM: 0.53 ± 0.017
C3H10T1/2 cells [2]
  Differentiation of the cells into adipocytes, result in words: higher differentiation

## Insulin
C3H10T1/2 cells [2]; Insulin 1 × 10^−7 M alone (negative control)
  Adipocyte differentiation, oil Red O, Mean OD ± SEM: 0.28 ± 0.03
